The record followed here is US20080255134A1 (Artesian Therapeutics, Inc., priority 2004, published 2008).

Structures are written as SMILES. Where two headings read alike, the source gives them in different places.

This test has as its target T1, PDE3 (Homo sapiens, UniProt Q14432).
T1 construct: from tissue; host or cells: human platelets
Briefly: In vitro assay for cAMP PDE-3 inhibitory activity. Type of test: biochemical. As to conditions: human platelet cyclic AMP phosphodiesterase, bound stated. The protocol:
Human platelet cyclic AMP phosphodiesterase was prepared according to the method of Alvarez et al., Mol. Pharmacol. 29: 554 (1986). The PDE incubation medium contained 10 mM Tris-HCl buffer, pH 7.7, 10 mM MgSO4, and 1 μM […] (0.2 μCi) in a total volume of 1.0 mL. Test compounds were dissolved in DMSO immediately prior to addition to the incubation medium, and the resulting mixture was allowed to stand for 10 minutes prior to the addition of enzyme. Following the addition of PDE, the contents were mixed and incubated for 10 minutes at 30° C. Three assays each were performed for each of five test compound concentrations, the mean of the determinations (n=3) at each concentration was plotted, and IC50 values were determined graphically.
The ability of Compounds 25 and 8c to inhibit PDE3 and β-adrenergic receptor activity was examined both in vitro and in vivo. […] Non-selective β-adrenergic and β1-adrenergic radioligand binding assays were performed using rat cortical membranes; β2-adrenergic receptor assays were performed using membranes isolated from CHO cells expressing human, recombinant b2-adrenergic receptor; non-selective α1-adrenergic receptor assays were performed using rat forebrain membranes; and PDE3 binding assays were performed on human platelets. Values in percent illustrate percent inhibition at 1000 nM concentration.

Setting [1] is: read-out: PDE IC50 inhibition values.

T1 sequence (Q14432 whole entry): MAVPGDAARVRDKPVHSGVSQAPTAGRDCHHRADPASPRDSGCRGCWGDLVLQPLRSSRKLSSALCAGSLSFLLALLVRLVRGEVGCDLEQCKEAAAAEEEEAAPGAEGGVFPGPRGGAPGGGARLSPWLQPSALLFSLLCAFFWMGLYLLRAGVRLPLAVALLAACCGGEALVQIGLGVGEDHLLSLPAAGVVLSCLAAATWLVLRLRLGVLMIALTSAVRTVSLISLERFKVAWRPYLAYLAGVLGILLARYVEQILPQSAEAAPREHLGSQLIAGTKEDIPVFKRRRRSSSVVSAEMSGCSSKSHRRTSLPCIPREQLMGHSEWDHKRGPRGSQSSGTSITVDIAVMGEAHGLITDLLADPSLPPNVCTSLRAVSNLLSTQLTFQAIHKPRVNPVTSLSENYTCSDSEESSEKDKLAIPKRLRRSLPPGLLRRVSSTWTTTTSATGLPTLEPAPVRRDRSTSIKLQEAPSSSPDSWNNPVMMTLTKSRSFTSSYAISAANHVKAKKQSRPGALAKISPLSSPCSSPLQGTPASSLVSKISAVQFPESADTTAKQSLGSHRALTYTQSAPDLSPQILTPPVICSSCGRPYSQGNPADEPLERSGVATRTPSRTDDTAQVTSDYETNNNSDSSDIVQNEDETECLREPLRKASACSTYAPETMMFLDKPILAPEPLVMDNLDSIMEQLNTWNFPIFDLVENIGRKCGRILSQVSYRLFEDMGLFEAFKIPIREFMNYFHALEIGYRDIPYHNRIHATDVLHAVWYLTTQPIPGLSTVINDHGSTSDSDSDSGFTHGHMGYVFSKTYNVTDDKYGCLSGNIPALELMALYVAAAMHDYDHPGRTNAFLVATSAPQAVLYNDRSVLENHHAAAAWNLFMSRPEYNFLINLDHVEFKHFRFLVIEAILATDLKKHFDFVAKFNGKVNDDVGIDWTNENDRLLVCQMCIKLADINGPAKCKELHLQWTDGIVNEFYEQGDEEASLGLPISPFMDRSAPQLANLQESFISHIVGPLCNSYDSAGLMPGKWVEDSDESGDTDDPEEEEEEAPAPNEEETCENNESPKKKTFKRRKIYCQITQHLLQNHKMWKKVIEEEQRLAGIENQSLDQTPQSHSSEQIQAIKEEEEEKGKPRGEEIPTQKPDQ

Turning to `O=C1CCC(c2ccc(OCCCCCNCC(O)COc3cccc4[nH]c5ccccc5c34)c(Cl)c2)=NN1` (stereo not shown) [Compound 57], the IC50 – broadly, the concentration that gives 50% inhibition – (read-out: PDE3 inhibition IC50) is below 1000 nM.

Regarding `COCCc1ccc(OC[C@@H](O)CNCCCCCOc2ccc(C3=NNC(=O)CC3)cc2Cl)cc1` [Compound 46], the half-inhibitory concentration (IC50) (read-out: PDE3 inhibition IC50) was below 1000 nM.

For `N#Cc1ccccc1OC[C@@H](O)CNC1CCN(C(=O)COc2ccc(C3=NNC(=O)CC3)cc2Cl)CC1` [Compound 8e, 2-[3-(1-{2-[2-chloro-4-(6-oxo-1,4,5,6-tetrahydro-pyridazin-3-yl)-phenoxy]-acetyl}-piperidin-4-ylamino)-2-hydroxy-propoxy]-benzonitrile], the half-inhibitory concentration (IC50) (read-out: PDE3 inhibition IC50) is below 1000 nM.

For `O=C1CCC(c2ccc(OCC(=O)N3CCC(NC[C@H](O)COc4ccc5c(c4)[nH]c4ccccc45)CC3)c(Cl)c2)=NN1` [Compound 33, 6-[4-(2-{4-[(S)-3-(9H-Carbazol-2-yloxy)-2-hydroxy-propylamino]-piperidin-1-yl}-2-oxo-ethoxy)-3-chloro-phenyl]-4,5-dihydro-2H-pyridazin-3-one], for the setting “read-out: PDE3 inhibition IC50”, the IC50 was below 1000 nM.

As for `COCCc1ccc(OC[C@@H](O)CNC2CCN(C(=O)COc3ccc(C4=NNC(=O)CC4)cc3Cl)C2)cc1` (stereo partly drawn) [Compound 42, 6-{3-Chloro-4-[2-(3-{(S)-2-hydroxy-3-[4-(2-methoxy-ethyl)-phenoxy]-propylamino}-pyrrolidin-1-yl)-2-oxo-ethoxy]-phenyl}-4,5-dihydro-2H-pyridazin-3-one], the IC50 (read-out: PDE3 inhibition IC50) was below 1000 nM.

On to `COCCc1ccc(OC[C@@H](O)CNC2CN(C(=O)COc3ccc(C4=NNC(=O)CC4)cc3Cl)C2)cc1` [Compound 48, 6-{3-Chloro-4-[2-(3-{(S)-2-hydroxy-3-[4-(2-methoxy-ethyl)-phenoxy]-propylamino}-azetidin-1-yl)-2-oxo-ethoxy]-phenyl}-4,5-dihydro-2H-pyridazin-3-one], for which the IC50 (read-out: PDE3 inhibition IC50) was below 1000 nM.

Consider `O=C1CCC(c2ccc(OCC(=O)N3CCC(NC[C@H](O)COc4ccccc4)CC3)c(Cl)c2)=NN1` [Compound 8a, 6-(3-chloro-4-{2-[4-(2-hydroxy-3-phenoxy-propylamino)-piperidin-1-yl]-2-oxo-ethoxy}-phenyl)-4,5-dihydro-2H-pyridazin-3-one], for which the IC50 (read-out: PDE3 inhibition IC50) was below 1000 nM.

For the molecule `COCCc1ccc(OC[C@@H](O)CNCCCOc2ccc(C3=NNC(=O)CC3)cc2Cl)cc1` [Compound 36], the IC50 is, setting by setting: (read-out: PDE3 inhibition IC50) below 1000 nM; under setting [1], below 100 nM.

On to `O=C1CCC(c2ccc(OCCNCC(O)COc3ccc4c(c3)[nH]c3ccccc34)c(Cl)c2)=NN1` (stereo not shown) [Compound 34, 6-(4-{2-[3-(9H-carbazol-2-yloxy)-2-hydroxy-propylamino]-ethoxy}-3-chloro-phenyl)-4,5-dihydro-2H-pyridazin-3-one], for which, for the setting “read-out: PDE3 inhibition IC50”, the IC50 is below 1000 nM.

For the molecule `O=C1CCC(c2ccc(OCC(=O)N3CCC(NC[C@H](O)COc4ccccc4OC(F)(F)F)CC3)c(Cl)c2)=NN1` [Compound 8i, 6-[3-chloro-4-(2-{4-[2-hydroxy-3-(2-trifluoromethoxy-phenoxy)-propylamino]-piperidin-1-yl}-2-oxo-ethoxy)-phenyl]-4,5-dihydro-2H-pyridazin-3-one], the IC50 reads like this: (read-out: PDE3 inhibition IC50) below 1000 nM; under setting [1], below 100 nM.

Turning to `COCCc1ccc(OCC(O)CNC2CCN(C(=O)COc3ccc(C4=NNC(=O)CC4)cc3Cl)CC2)cc1` (racemic) [Compound 13, 6-{3-Chloro-4-[2-(4-{2-hydroxy-3-[4-(2-methoxy-ethyl)-phenoxy]-propylamino}-piperidin-1-yl)-2-oxo-ethoxy]-phenyl}-4,5-dihydro-2H-pyridazin-3-one], the IC50 (read-out: PDE3 inhibition IC50) was below 1000 nM.

In the case of `O=C1CCC(c2ccc(OCCCCNCC(O)COc3cccc4[nH]c5ccccc5c34)c(Cl)c2)=NN1` (stereo not shown) [Compound 56], the IC50 runs as follows: (read-out: PDE3 inhibition IC50) below 1000 nM; under setting [1], below 100 nM.

For the molecule `CC(C)(CNC(=O)COc1ccc(C2=NNC(=O)CC2)cc1Cl)NCC(O)COc1c(Br)ccc2[nH]c3ccccc3c12` (stereo not shown) [Compound 72a, N-{2-[3-(3-Bromo-9H-carbazol-4-yloxy)-2-hydroxy-propylamino]-2-methyl-propyl}-2-[2-chloro-4-(6-oxo-1,4,5,6-tetrahydro-pyridazin-3-yl)-phenoxy]-acetamide], the IC50 (read-out: PDE3 inhibition IC50) is below 1000 nM.

As for `N#Cc1ccc(OC[C@@H](O)CNC2CCN(C(=O)COc3ccc(C4=NNC(=O)CC4)cc3Cl)CC2)cc1` [Compound 8o, 4-[3-(1-{2-[2-chloro-4-(6-oxo-1,4,5,6-tetrahydro-pyridazin-3-yl)-phenoxy]-acetyl}-piperidin-4-ylamino)-2-hydroxy-propoxy]-benzonitrile], where the note is “read-out: PDE3 inhibition IC50”, the IC50 is below 1000 nM.

As for `O=C1CCC(c2ccc(OCCNC[C@H](O)COc3cccc4[nH]c5ccccc5c34)c(Cl)c2)=NN1` [Compound 22, 6-(4-{2-[(S)-3-(9H-carbazol-4-yloxy)-2-hydroxy-propylamino]-ethoxy}-3-chloro-phenyl)-4,5-dihydro-2H-pyridazin-3-one], the concentration for half-maximal inhibition (IC50) (read-out: PDE3 inhibition IC50) was below 1000 nM and the IC50 under setting [1] is below 100 nM.

Regarding `O=C1CCC(c2ccc(OCC(=O)N3CCC(NCC(O)COc4cccc5[nH]c6ccccc6c45)CC3)c(Cl)c2)=NN1` (stereo not shown) [Compound 63, 6-[4-(2-{4-[3-(9H-Carbazol-4-yloxy)-2-hydroxy-propylamino]-piperidin-1-yl}-2-oxo-ethoxy)-3-chloro-phenyl]-4,5-dihydro-2H-pyridazin-3-one], the IC50 (read-out: PDE3 inhibition IC50) was below 1000 nM.

As for `O=C1CCC(c2ccc(OCCCNC[C@H](O)COc3cccc4[nH]c5ccccc5c34)c(Cl)c2)=NN1` [Compound 29, 6-(4-{3-[(S)-3-(9H-Carbazol-4-yloxy)-2-hydroxy-propylamino]-propoxy}-3-chloro-phenyl)-4,5-dihydro-2H-pyridazin-3-one], the IC50 is, setting by setting: (read-out: PDE3 inhibition IC50) below 1000 nM; under setting [1], below 100 nM.

For the molecule `O=C(COc1ccc(C2=NNC(=O)CC2)cc1Cl)NCCNCC(O)COc1cccc2[nH]c3ccccc3c12` (stereo not shown) [Compound 70], the concentration for half-maximal inhibition (IC50) reads like this: (read-out: PDE3 inhibition IC50) below 1000 nM; under setting [1], below 100 nM.

For the molecule `O=C1CCC(c2ccc(OCCCNCC(O)COc3cccc4[nH]c5ccccc5c34)c(Cl)c2)=NN1` (stereo not shown) [Compound 64, 6-(4-{3-[3-(9H-Carbazol-4-yloxy)-2-hydroxy-propylamino]-propoxy}-3-chloro-phenyl)-4,5-dihydro-2H-pyridazin-3-one], the 50% inhibitory concentration (IC50) is, setting by setting: (read-out: PDE3 inhibition IC50) below 1000 nM; under setting [1], below 100 nM.

Turning to `COCCc1ccc(OC[C@@H](O)CNC(C)(C)CNC(=O)COc2ccc(C3=NNC(=O)CC3)cc2Cl)cc1` [Compound 40, 2-[2-Chloro-4-(6-oxo-1,4,5,6-tetrahydro-pyridazin-3-yl)-phenoxy]-N-(2-{(S)-2-hydroxy-3-[4-(2-methoxy-ethyl)-phenoxy]-propylamino}-2-methyl-propyl)-acetamide], the IC50 (read-out: PDE3 inhibition IC50) was below 1000 nM.

For `C=CCc1ccccc1OC[C@@H](O)CNC1CCN(C(=O)COc2ccc(C3=NNC(=O)CC3)cc2Cl)CC1` [Compound 8j, 6-[4-(2-{4-[3-(2-allyl-phenoxy)-2-hydroxy-propylamino]-piperidin-1-yl}-2-oxo-ethoxy)-3-chloro-phenyl]-4,5-dihydro-2H-pyridazin-3-one], the 50% inhibitory concentration (IC50) was below 1000 nM (read-out: PDE3 inhibition IC50) and below 100 nM under setting [1].

As to `N#Cc1cccc(OC[C@@H](O)CNC2CCN(C(=O)COc3ccc(C4=NNC(=O)CC4)cc3Cl)CC2)c1` [Compound 8m, 3-[3-(1-{2-[2-chloro-4-(6-oxo-1,4,5,6-tetrahydro-pyridazin-3-yl)-phenoxy]-acetyl}-piperidin-4-ylamino)-2-hydroxy-propoxy]-benzonitrile], the IC50 (read-out: PDE3 inhibition IC50) was below 1000 nM.

For the molecule `COCCc1ccc(OC[C@@H](O)CNC2CCN(C(=O)COc3ccc(C4=NNC(=O)CC4)cc3Cl)CC2)cc1` [Compound 8r, 6-{3-chloro-4-[2-(4-{2-hydroxy-3-[4-(2-methoxy-ethyl)-phenoxy]-propylamino}-piperidin-1-yl)-2-oxo-ethoxy]-phenyl}-4,5-dihydro-2H-pyridazin-3-one], the IC50 (read-out: PDE3 inhibition IC50) was below 1000 nM.

Consider `O=C1CCC(c2ccc(OCCCNC[C@H](O)COc3ccc4c(c3)[nH]c3ccccc34)c(Cl)c2)=NN1` [Compound 35, 6-(4-{3-[(S)-3-(9H-Carbazol-2-yloxy)-2-hydroxy-propylamino]-propoxy}-3-chloro-phenyl)-4,5-dihydro-2H-pyridazin-3-one], for which, under “read-out: PDE3 inhibition IC50”, the IC50 is below 1000 nM.

Regarding `O=C1CCC(c2ccc(OCC(=O)N3CC(NCC(O)COc4cccc5[nH]c6ccccc6c45)C3)c(Cl)c2)=NN1` (stereo not shown) [Compound 75, 6-[4-(2-{3-[3-(9H-Carbazol-4-yloxy)-2-hydroxy-propylamino]-azetidin-1-yl}-2-oxo-ethoxy)-3-chloro-phenyl]-4,5-dihydro-2H-pyridazin-3-one], where the note is “read-out: PDE3 inhibition IC50”, the IC50 is below 1000 nM.

As for `O=C1CCC(c2ccc(OCC(=O)N3CCC(NC[C@H](O)COc4cccc(Br)c4)CC3)c(Cl)c2)=NN1` [Compound 8l, 6-[4-(2-{4-[3-(3-bromo-phenoxy)-2-hydroxy-propylamino]-piperidin-1-yl}-2-oxo-ethoxy)-3-chloro-phenyl]-4,5-dihydro-2H-pyridazin-3-one], for the setting “read-out: PDE3 inhibition IC50”, the half-inhibitory concentration (IC50) was below 1000 nM.

Consider `COc1ccccc1OC[C@@H](O)CNC1CCN(C(=O)COc2ccc(C3=NNC(=O)CC3)cc2Cl)CC1` [Compound 8h, 6-[3-chloro-4-(2-{4-[2-hydroxy-3-(2-methoxy-phenoxy)-propylamino]-piperidin-1-yl}-2-oxo-ethoxy)-phenyl]-4,5-dihydro-2H-pyridazin-3-one], for which the IC50 (read-out: PDE3 inhibition IC50) is below 1000 nM.

Consider `O=C1CCC(c2ccc(OCCNCC(O)COc3cccc4[nH]ccc34)c(Cl)c2)=NN1` (stereo not shown) [Compound 52], for which the 50% inhibitory concentration (IC50) was below 1000 nM (read-out: PDE3 inhibition IC50) and below 100 nM under setting [1].
